Source: patent US20260297092A1, “PYRAZOLOPYRIMIDINE DERIVATIVES AS INHIBITORS OF NLRP3” (Takeda Pharmaceutical Company Limited, priority 2023, published 2026)

What was measured:
[1] = system: NLRP3 inflammasome (IL-1β production in THP-1 cells); assay: IL-1β TR-FRET Assay (percentage of inhibition at 300 nM, 6 μM or 10 μM); type: cell-based, human; conditions: LPS priming, ATP activation; for inhibition at 0.3 µM: THP-1, 300 nM, read-out: IL-1β inhibitory rate at 300 nM (%); for inhibition at 6 µM: THP-1, 6 μM, read-out: IL-1β inhibitory rate at 6 μM (%)
Procedure, shortened: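 Percent inhibition of IL-1β used DMSO wells as 0% and 3 μM MCC-950 wells as full inhibition, with supernatant read by HTRF. Beforehand, IFN-γ-differentiated (25 ng/mL, 24 h), LPS-primed (50 ng/mL, 24 h) THP-1 cells received compound 30 min before inflammasome activation by 20 mM ATP for 2 h.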

[2] = system: TNF-α (NF-κB pathway, THP-1 cells); assay: TNF-α Assay (IC50); type: cell-based, human; conditions: 600 ng/mL LPS, 3 hours
Procedure, shortened: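 Supernatant TNF-α quantified by ELISA after 3 h stimulation with 600 ng/mL LPS at 37 °C, following 30 min compound preincubation. Cells: IFN-differentiated (25 ng/mL, 24 h) THP-1 macrophages, 40,000/well, serum-free. IC50 by sigmoidal fit of % inhibition, with TPCA-1 as 100% control.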

Row | Structure (SMILES) | IC50 ([2]; Homo sapiens) | inhibition at 0.3 µM ([1]; Homo sapiens) | inhibition at 6 µM ([1]; Homo sapiens) | other results
1 | CCCCc1nc2nn(-c3c(C)cc(C)cc3O)cc2c(=O)[nH]1 [Example 17, 6-butyl-2-(2-hydroxy-4,6-dimethylphenyl)-2,5-dihydro-4H-pyrazolo[3,4-d]pyrimidin-4-one] | > 30 µM | 99% | – | –
2 | CCOc1nc2nn(-c3c(C)cc(CC)cc3F)cc2c(=O)[nH]1 [Example 122, 6-ethoxy-2-(4-ethyl-2-fluoro-6-methylphenyl)-2,5-dihydro-4H-pyrazolo[3,4-d]pyrimidin-4-one] | > 30 µM | 99% | – | –
3 | CCOc1nc2nn(-c3c(F)cc(C4CC4)cc3Br)cc2c(=O)[nH]1 [Example 114, 2-(2-bromo-4-cyclopropyl-6-fluorophenyl)-6-ethoxy-2,5-dihydro-4H-pyrazolo[3,4-d]pyrimidin-4-one] | > 30 µM | 98% | – | –
4 | CCOCc1nc2nn(-c3c(C)cc(C)cc3O)cc2c(=O)[nH]1 [Example 46, 6-(ethoxymethyl)-2-(2-hydroxy-4,6-dimethylphenyl)-2,5-dihydro-4H-pyrazolo[3,4-d]pyrimidin-4-one] | > 30 µM | 95% | – | –
5 | CCOc1nc2nn(-c3c(F)cc(C4CC4)cc3OC(F)F)cc2c(=O)[nH]1 [Example 107, 2-[4-cyclopropyl-2-(difluoromethoxy)-6-fluorophenyl]-6-ethoxy-2,5-dihydro-4H-pyrazolo[3,4-d]pyrimidin-4-one] | > 30 µM | 99% | – | –
6 | CCOc1nc2nn(-c3c(F)cc(C(F)(F)F)cc3Br)cc2c(=O)[nH]1 [Example 54, 2-[2-bromo-6-fluoro-4-(trifluoromethyl)phenyl]-6-ethoxy-2,5-dihydro-4H-pyrazolo[3,4-d]pyrimidin-4-one] | > 30 µM | 100% | – | –
7 | Cc1cc(C2CC2)cc(C)c1-n1cc2c(=O)[nH]c([C@@]3(F)CCOC3)nc2n1 [Example 289, 2-(4-cyclopropyl-2,6-dimethylphenyl)-6-[(3R)-3-fluorooxolan-3-yl]-2,5-dihydro-4H-pyrazolo[3,4-d]pyrimidin-4-one or 2-(4-cyclopropyl-2,6-dimethylphenyl)-6-[(3S)-3-fluorooxolan-3-yl]-2,5-dihydro-4H-pyrazolo[3,4-d]pyrimidin-4-one] | – | – | – | IL-1β inhibitory rate at 6 μM (%) ([1]; 6 μM): 101%; IC50 [2]: > 30 µM
8 | Cc1cc(C)c(-n2cc3c(=O)[nH]c(-c4cccnn4)nc3n2)c(O)c1 [Example 30, 2-(2-hydroxy-4,6-dimethylphenyl)-6-(pyridazin-3-yl)-2,5-dihydro-4H-pyrazolo[3,4-d]pyrimidin-4-one] | > 30 µM | 100% | – | –
9 | CCOc1nc2nn(-c3c(C)cc(C(F)F)cc3F)cc2c(=O)[nH]1 [Example 136, 2-[4-(difluoromethyl)-2-fluoro-6-methylphenyl]-6-ethoxy-2,5-dihydro-4H-pyrazolo[3,4-d]pyrimidin-4-one] | > 30 µM | 92% | – | –
10 | Cc1cc(C)c(-n2cc3c(=O)[nH]c(-c4ccccc4)nc3n2)c(O)c1 [Example 5, 2-(2-hydroxy-4,6-dimethylphenyl)-6-phenyl-2,5-dihydro-4H-pyrazolo[3,4-d]pyrimidin-4-one] | > 30 µM | 99% | – | –
11 | CCOc1nc2nn(-c3c(C)cc(Br)cc3F)cc2c(=O)[nH]1 [Example 24, 2-(4-bromo-2-fluoro-6-methylphenyl)-6-ethoxy-2,5-dihydro-4H-pyrazolo[3,4-d]pyrimidin-4-one] | > 30 µM | 99% | – | –
12 | CCOc1nc2nn(-c3c(C)cc(C4CC4(F)F)cc3F)cc2c(=O)[nH]1 (racemic) [Example 112, 2-[4-(2,2-difluorocyclopropyl)-2-fluoro-6-methylphenyl]-6-ethoxy-2,5-dihydro-4H-pyrazolo[3,4-d]pyrimidin-4-one] | > 30 µM | 98% | – | –
13 | CCOc1nc2nn(-c3c(C)cc(CC(F)(F)F)cc3F)cc2c(=O)[nH]1 [Example 156, 6-ethoxy-2-[2-fluoro-6-methyl-4-(2,2,2-trifluoroethyl)phenyl]-2,5-dihydro-4H-pyrazolo[3,4-d]pyrimidin-4-one] | > 30 µM | – | – | inhibition at 10 µM ([1]; Homo sapiens, THP-1, 10 μM, read-out: IL-1β inhibitory rate at 10 μM (%)): 97%
14 | COCCOc1nc2nn(-c3c(F)cc(C4CC4)cc3C(F)F)cc2c(=O)[nH]1 [Example 186, 2-[4-cyclopropyl-2-(difluoromethyl)-6-fluorophenyl]-6-(2-methoxyethoxy)-2,5-dihydro-4H-pyrazolo[3,4-d]pyrimidin-4-one] | > 30 µM | 100% | – | –
15 | COc1nc2nn(-c3c(F)cc(C4CC4)cc3C(F)F)cc2c(=O)[nH]1 [Example 193, 2-[4-cyclopropyl-2-(difluoromethyl)-6-fluorophenyl]-6-methoxy-2,5-dihydro-4H-pyrazolo[3,4-d]pyrimidin-4-one] | > 30 µM | 101% | – | –
16 | CCOc1nc2nn(-c3c(C)cc(OC(F)F)cc3C)cc2c(=O)[nH]1 [Example 147, 2-[4-(difluoromethoxy)-2,6-dimethylphenyl]-6-ethoxy-2,5-dihydro-4H-pyrazolo[3,4-d]pyrimidin-4-one] | > 30 µM | 103% | – | –
17 | CCOc1nc2nn(-c3c(C)cc(C4(F)CC4)cc3F)cc2c(=O)[nH]1 [Example 182, 6-ethoxy-2-[2-fluoro-4-(1-fluorocyclopropyl)-6-methylphenyl]-2,5-dihydro-4H-pyrazolo[3,4-d]pyrimidin-4-one] | > 30 µM | 102% | – | –

Continued, in another order:

Row | IC50 ([2]; Homo sapiens) | Structure (SMILES) | inhibition at 0.3 µM ([1]; Homo sapiens) | inhibition at 6 µM ([1]; Homo sapiens) | other results
18 | > 30 µM | Cc1cc(C2CC2)cc(C(F)F)c1-n1cc2c(=O)[nH]c(COC(F)F)nc2n1 [Example 283, 2-[4-cyclopropyl-2-(difluoromethyl)-6-methylphenyl]-6-[(difluoromethoxy)methyl]-2,5-dihydro-4H-pyrazolo[3,4-d]pyrimidin-4-one] | – | 99% | –
19 | > 30 µM | COCCn1ccc(-c2nc3nn(-c4c(C)cc(C5CC5)cc4C)cc3c(=O)[nH]2)n1 [Example 278, 2-(4-cyclopropyl-2,6-dimethylphenyl)-6-[1-(2-methoxyethyl)-1H-pyrazol-3-yl]-2,5-dihydro-4H-pyrazolo[3,4-d]pyrimidin-4-one] | – | 95% | –
20 | > 30 µM | Cc1ncc(-c2nc3nn(-c4c(C)cc(C5CC5)cc4C)cc3c(=O)[nH]2)o1 [Example 273, 2-(4-cyclopropyl-2,6-dimethylphenyl)-6-(2-methyl-1,3-oxazol-5-yl)-2,5-dihydro-4H-pyrazolo[3,4-d]pyrimidin-4-one] | – | 99% | –
21 | > 30 µM | COc1nc2nn(-c3c(C)cc(C4(F)CC4)cc3C)cc2c(=O)[nH]1 [Example 235, 2-[4-(1-fluorocyclopropyl)-2,6-dimethylphenyl]-6-methoxy-2,5-dihydro-4H-pyrazolo[3,4-d]pyrimidin-4-one] | – | 105% | –
22 | > 30 µM | COCCc1nc2nn(-c3c(F)cc(C4CC4)cc3C(F)F)cc2c(=O)[nH]1 [Example 300, 2-[4-cyclopropyl-2-(difluoromethyl)-6-fluorophenyl]-6-(2-methoxyethyl)-2,5-dihydro-4H-pyrazolo[3,4-d]pyrimidin-4-one] | – | 99% | –
23 | > 30 µM | O=c1[nH]c([C@H]2COCCO2)nc2nn(-c3c(F)cc(C4CC4)cc3C(F)F)cc12 (single isomer, unassigned) [Example 312, 2-[4-cyclopropyl-2-(difluoromethyl)-6-fluorophenyl]-6-[(2R)-1,4-dioxan-2-yl]-2,5-dihydro-4H-pyrazolo[3,4-d]pyrimidin-4-one or 2-[4-cyclopropyl-2-(difluoromethyl)-6-fluorophenyl]-6-[(2S)-1,4-dioxan-2-yl]-2,5-dihydro-4H-pyrazolo [3,4-d]pyrimidin-4-one] | – | 104% | –
24 | > 30 µM | CCc1nc2nn(-c3c(F)cc(C4CC4)cc3C(F)F)cc2c(=O)[nH]1 [Example 295, 2-[4-cyclopropyl-2-(difluoromethyl)-6-fluorophenyl]-6-ethyl-2,5-dihydro-4H-pyrazolo[3,4-d]pyrimidin-4-one] | – | 105% | –
25 | > 30 µM | Cc1cc(C2CC2)cc(C)c1-n1cc2c(=O)[nH]c(-c3cc4n(n3)CCOC4)nc2n1 [Example 218, 2-(4-cyclopropyl-2,6-dimethylphenyl)-6-(6,7-dihydro-4H-pyrazolo[5,1-c][1,4]oxazin-2-yl)-2,5-dihydro-4H-pyrazolo[3,4-d]pyrimidin-4-one] | 106% | – | –
26 | > 30 µM | CCOc1nc2nn(-c3c(C)cc(OC(F)F)nc3C)cc2c(=O)[nH]1 [Example 226, 2-[6-(difluoromethoxy)-2,4-dimethylpyridin-3-yl]-6-ethoxy-2,5-dihydro-4H-pyrazolo[3,4-d]pyrimidin-4-one] | – | 106% | –
27 | > 30 µM | Cc1cc(C2CC2)cc(C)c1-n1cc2c(=O)[nH]c(CC(F)(F)F)nc2n1 [Example 211, 2-(4-cyclopropyl-2,6-dimethylphenyl)-6-(2,2,2-trifluoroethyl)-2,5-dihydro-4H-pyrazolo[3,4-d]pyrimidin-4-one] | 107% | – | –
28 | > 30 µM | Cc1cc(-c2nc3nn(-c4c(C)cc(C5CC5)cc4C)cc3c(=O)[nH]2)no1 [Example 274, 2-(4-cyclopropyl-2,6-dimethylphenyl)-6-(5-methyl-1,2-oxazol-3-yl)-2,5-dihydro-4H-pyrazolo[3,4-d]pyrimidin-4-one] | – | 102% | –
